These results are taken from PubChem BioAssay AID1996.

Each structure is given as a SMILES string. Values after ≈ are worked out from the molar mass of the structure shown.

The conditions of this series: buffer; pH 7.4; 200.0 µM.
The compound `O=C(c1ccccc1)N1CCC2(CC1)NCCc1[nH]cnc12` gave a kinetic solubility of 42.7 µg/mL (≈ 144 µM).
In turn, `CCCS(=O)(=O)c1cnc(C2COc3ccccc3O2)nc1N` (configuration not stated) gave a solubility (kinetic) of 12.7 µg/mL (≈ 37.9 µM).
The same measure for `CN1C2CCC1CC(NC(=O)CSCc1ccc(Cl)cc1Cl)C2` (configuration not stated): above 56 µg/mL; for `OC(CNCc1ccccc1F)COc1cccc2ccccc12` (configuration not stated): 39.6 µg/mL (≈ 122 µM); for `CCc1cc(=O)oc2cc(OCC(=O)N3CC[C@@]4(O)CCCC[C@H]4C3)ccc12`: above 57.8 µg/mL.
As for `COc1ccc(CCNC(=O)COC(=O)c2cc(Cl)nc(Cl)c2)cc1`, the solubility (kinetic) was 23.6 µg/mL (≈ 61.6 µM).
Under `COc1ccccc1OCC(=O)Nc1ccc2c(c1)n(C)c(=O)n2C` stands above 51.2 µg/mL.
The same measure for `CCNc1c(NCC)c(=O)c1=O`: 23.2 µg/mL (≈ 138 µM).
Under `O=C1NC(=O)C2(CCCCCCCCCCC2)N1` stands 1.5 µg/mL (≈ 5.94 µM); under `O=C(COC(=O)Cc1ccc(Cl)cc1Cl)NC1CC1`, above 45.3 µg/mL; under `CCS(=O)(=O)c1ccc(O)c(NC(=O)c2cc(-c3ccccn3)nc3ccccc23)c1`, above 65 µg/mL.
`CSc1ccc(S(=O)(=O)NC2CC2)cc1` showed a kinetic solubility above 36.5 µg/mL.
`COc1ccc(OC)c2nc3c(cc12)CCC3`: the solubility (kinetic) is 29 µg/mL (≈ 126 µM).
`Nc1nnc(SCC(=O)Nc2cccnc2Cl)s1`: the kinetic solubility was above 45.3 µg/mL.
Under `Cc1sc2nc(-c3cccnc3)[nH]c(=O)c2c1-c1ccccc1` stands 2.1 µg/mL (≈ 6.58 µM); under `Cc1nc(NC(=O)c2cnccn2)ccc1Br`, 7.8 µg/mL (≈ 26.6 µM).
Under `O=C(O)COCC(=O)N1CCCN(c2nc3ccc(Cl)cc3s2)CC1` stands above 57.6 µg/mL; under `O=C(OCC(=O)N1CCCc2ccccc21)c1ccccc1OC(F)F`, 29.7 µg/mL (≈ 82.2 µM); under `S=C(NCc1ccccc1)NCc1cccc(Cl)c1`, 23.2 µg/mL (≈ 79.8 µM).
Under `CC(=O)N1CCN(C(=O)COC(=O)/C=C/c2ccc(C(F)(F)F)cc2)CC1` stands above 57.7 µg/mL; under `COc1ccc(C(=O)Nc2ccc(N3CCN(C)CC3)cc2)cc1`, 42.7 µg/mL (≈ 131 µM); under `Fc1ccccc1NC(=S)NC1CCCC1`, 35.2 µg/mL (≈ 148 µM).
For `Cc1cc(C)nc(/N=C(\NC(=O)C(C)(C)C)Nc2ccccc2)n1`, the kinetic solubility is 1.8 µg/mL (≈ 5.53 µM).
The same measure for `O=C(CCc1c[nH]c2ccccc12)NCCc1ccccc1`: 28.5 µg/mL (≈ 97.5 µM); for `Cc1nn(C)cc1S(=O)(=O)Nc1cccc(Cl)c1`: above 42.9 µg/mL; for `COc1cc(NC(C)CCc2ccccc2)cc(OC)c1OC` (configuration not stated): above 47.3 µg/mL.
With `CCN(c1ccccc1)S(=O)(=O)c1ccc(Cl)c(C(=O)O)c1`, the solubility (kinetic) was above 51 µg/mL.
Under `C=CCn1c(O)c(C(CC)=NCc2ccc3c(c2)OCO3)c(=O)[nH]c1=O` stands 3 µg/mL (≈ 8.39 µM); under `O=C(NCc1csc(-c2cccs2)n1)C1CC1`, 34.3 µg/mL (≈ 130 µM); under `CCOC(=O)c1ccc(NC(=S)NCc2ccco2)cc1`, above 45.7 µg/mL.
`NC(=O)c1cc(-c2ccccc2)nc2ccc(Br)cc12`: the kinetic solubility came out at 1.8 µg/mL (≈ 5.5 µM).
Under `CC(C)OC(=O)c1ccc2nc3ccccc3nc2c1` stands 1 µg/mL (≈ 3.76 µM); under `N#C/C(=C\c1c[nH]c2ccccc12)C(=O)NC1CCCC1`, 1.8 µg/mL (≈ 6.44 µM); under `O=Cc1ccccc1OCCCOc1cccc2cccnc12`, 9.7 µg/mL (≈ 31.6 µM).
Turning to `O=C1c2cccc3cc([N+](=O)[O-])cc(c23)C(=O)N1CC1CCCO1` (configuration not stated), the solubility (kinetic) was found to be 5.7 µg/mL (≈ 17.5 µM).
`COC(=O)c1ccc(C)c(NC(=O)CCCN2C(=O)CN(C)C2=O)c1`: the kinetic solubility is above 52.1 µg/mL.
The same measure for `O=C(Nn1cnc2ccccc2c1=O)c1ccc([N+](=O)[O-])cc1`: above 46.5 µg/mL.
Turning to `CN1CCN(C(=O)c2ccc(-c3ccccc3)cc2)CC1`, the solubility (kinetic) is above 42.1 µg/mL.
For the compound `NC(=O)CNC(=O)c1cccc(Cl)c1`, the solubility (kinetic) is above 31.9 µg/mL.
The same measure for `COc1cc(CN=C(C)c2c(O)n(C3CCCCC3)c(=O)[nH]c2=O)cc(OC)c1`: below 0.3 µg/mL; for `O=C(CSc1ncnc2c1oc1ccccc12)NC1CCCC1`: 3.4 µg/mL (≈ 10.4 µM).
`O=C(COC(=O)c1ccc(Cl)nc1)Nc1ccccc1OC(F)F`: the solubility (kinetic) is above 53.5 µg/mL.
The same measure for `C/C(N)=C(/C#N)C(=O)COC(=O)c1cccc(O)c1`: above 39 µg/mL; for `Cc1ccc(OCC(=O)Nc2c[nH]c(=O)[nH]c2=O)cc1C`: 1 µg/mL (≈ 3.46 µM); for `CCn1c(SCC(=O)N2CCCC2)nc2ccccc21`: above 43.4 µg/mL.
Under `Cc1cccc(NC(=S)N2CCCCC2c2cccnc2)c1C` (configuration not stated) stands above 48.8 µg/mL; under `Cc1occc1C(=O)O/N=C(\N)c1ccccc1`, 36.1 µg/mL (≈ 148 µM); under `COc1cc(/C=C(\NC(C)=O)C(=O)O)cc(OC)c1OC`, above 44.3 µg/mL.
Under `COP(=O)(NC(=O)C(Cl)(Cl)Cl)OC` stands above 40.6 µg/mL; under `O=C(CCc1ccccc1)NCCc1ccc(F)cc1`, 37.4 µg/mL (≈ 138 µM).
`COc1ccc(CCNC(=O)COC(=O)Cc2c[nH]c3ccccc23)cc1OC`: the kinetic solubility was 47 µg/mL (≈ 119 µM). The solubility kinetic values of the last two compounds are within 1.5-fold of each other.
Under `Cn1c(=O)oc2cc(NC(=O)CCl)ccc21` stands 24.2 µg/mL (≈ 101 µM); under `CC(=O)C1=C(C)NC2=C(C(=O)CC(C)(C)C2)C1C` (configuration not stated), above 37.1 µg/mL.
On to `COc1ccccc1NC(=O)c1c[nH]c2ccccc12`, for which the solubility (kinetic) was above 39.9 µg/mL.
Consider `Cc1cccc(NC(=O)CNC(=O)c2ccc3nc[nH]c3c2)c1C`, for which the kinetic solubility was above 48.4 µg/mL.
`O=C(CCSc1ccc(Cl)cc1)NCc1ccncc1` had a solubility (kinetic) above 46 µg/mL.
The same measure for `COc1cc(NC(=O)CN2CCCCCC2)cc(OC)c1`: above 43.9 µg/mL.
The same measure for `COc1cccc(C2N(c3ccccc3)CCN2c2ccccc2)c1OC`: 1 µg/mL (≈ 2.77 µM).
Under `CS(=O)(=NS(=O)(=O)c1ccc(Cl)cc1)c1ccccc1` (configuration not stated) stands above 49.5 µg/mL; under `CN=C(c1ccc([N+](=O)[O-])cc1)N1CCCCC1`, above 37.1 µg/mL; under `COc1ccc2nc(C)cc(NCCN3CCOCC3)c2c1`, 42.3 µg/mL (≈ 140 µM).
Take `O=C1c2cccc3c(O)ccc(c23)C(=O)N1c1ccc(Cl)cc1`: the kinetic solubility stood at 16.2 µg/mL (≈ 50 µM).
The same measure for `COc1cccc(C(=O)OCC(=O)N2CCc3ccccc3C2)c1`: 46.1 µg/mL (≈ 142 µM); for `Cc1ccc(CNC(=O)c2ccc(Cl)c(S(N)(=O)=O)c2)n1C`: 41.5 µg/mL (≈ 121 µM).
Under `CCOC(=O)NC(C)N1C(=O)C2C3C=CC(C3)C2C1=O` (configuration not stated) stands above 41.7 µg/mL; under `C=CCn1c(O)c(C(CC)=Nc2ccc(C(=O)O)cc2)c(=O)[nH]c1=O`, above 51.5 µg/mL.
The same measure for `Cc1nc(SCc2cccc(F)c2)c2oc3ccccc3c2n1`: below 0.3 µg/mL; for `Cc1ccc(C(=O)NC2CCN(C(=O)Nc3ccccc3)CC2)cc1`: 4.4 µg/mL (≈ 13 µM).
The compound `Cc1cc(C)c2oc(C(=O)NCc3ccccc3)cc(=O)c2c1` displayed a solubility (kinetic) of 2.3 µg/mL (≈ 7.48 µM).
The same measure for `O=C(CCN1C(=O)c2cccc([N+](=O)[O-])c2C1=O)NC1CCCCCC1`: above 53.9 µg/mL.
Under `COc1ccccc1Cn1c(=O)oc2ccc(C)cc21` stands 2.9 µg/mL (≈ 10.8 µM).
The same measure for `CC1(C)CC2(CCO1)C(Nc1ccccc1)=NC(=S)N2c1ccccc1` (configuration not stated): below 0.3 µg/mL; for `COC(=O)C1=C(C)N(C)C(=O)NC1c1c(O)ccc2ccccc12` (configuration not stated): above 49 µg/mL.
With `COc1ccccc1-c1cn(-c2ccccc2)c(=S)[nH]1`, the solubility (kinetic) amounted to 3.8 µg/mL (≈ 13.5 µM).
`Nc1nc(NCCOCCO)nc(N2CCCCCC2)c1[N+](=O)[O-]` displayed a kinetic solubility of 47.4 µg/mL (≈ 139 µM). Compared with the last compound, the solubility kinetic is about 12-fold higher.
On to `Nc1nc2ccccc2n1Cc1ccc(Cl)c(Cl)c1`, for which the kinetic solubility was found to be 33.1 µg/mL (≈ 113 µM).
The same measure for `CN(Cc1ccccc1)C(NC(=O)c1ccco1)C(Cl)(Cl)Cl` (configuration not stated): 28.2 µg/mL (≈ 78 µM); for `O=C1COc2ccc(C(=O)COc3ccc([N+](=O)[O-])cc3)cc2N1`: 0.8 µg/mL (≈ 2.44 µM); for `CCc1cccc(C)c1NC(=O)C1CC(=O)N(C2CCCC2)C1` (configuration not stated): above 47.2 µg/mL.
The same measure for `CNc1ccc(OC)cc1-n1cnc(-c2ccc([N+](=O)[O-])cc2)c1`: 0.6 µg/mL (≈ 1.85 µM).
The same measure for `CCOc1ccc(OCCC(=O)Nc2ccc(F)cc2C)cc1`: 5 µg/mL (≈ 15.8 µM); for `Cc1ccc2[nH]c(C(=O)O)c(NC(=O)[C@@H]3C[C@@H]3c3ccccc3)c2c1`: above 50.2 µg/mL; for `Cc1cc([N+](=O)[O-])ccc1NC(=O)CCC(=O)N1CCCCC1`: above 47.9 µg/mL.
On to `CC(C)(C)C(=O)OCc1nc(-c2ccc(Cl)cc2)cs1`, for which the solubility (kinetic) was below 0.7 µg/mL.
Under `CCS(=O)(=O)c1ccc(O)c(NC(=O)/C=C/c2ccccc2)c1` stands above 49.7 µg/mL; under `O=C(O)c1ccc(NC(=O)c2ccccc2NC(=O)c2cccc(F)c2)cc1`, above 56.8 µg/mL; under `Cc1ccc(CN(C)C(=O)c2cccc(S(=O)(=O)N3CCc4ccccc43)c2)cc1`, 5.8 µg/mL (≈ 13.8 µM).
Under `CN1CCN(C(=O)/C(=C\c2cccs2)NC(=O)c2ccccc2)CC1` stands above 53.3 µg/mL; under `COc1ccc(C(=O)NCCc2c[nH]c3ccccc23)cc1[N+](=O)[O-]`, 10.8 µg/mL (≈ 31.8 µM).
The same measure for `O=C(COC(=O)CCC(=O)c1ccc(Cl)cc1)NCCc1ccccc1`: 5.7 µg/mL (≈ 15.2 µM).
In turn, `COc1ccc(CNc2ccc3c(c2)ncn3C)cc1OC` showed a solubility (kinetic) of 29.7 µg/mL (≈ 99.9 µM).
Under `Nc1nc(-c2ccc3ccccc3c2)cs1` stands 11.8 µg/mL (≈ 52.1 µM); under `C=CCn1c(O)c(C(C)=Nc2ccc3c(c2)CCC3)c(=O)[nH]c1=O`, 0.8 µg/mL (≈ 2.46 µM).
The same measure for `CCCCN(CCCC)CCCOC(=O)c1ccc(N)cc1`: above 46 µg/mL.
In the case of `Cc1nc2ccc(NS(=O)(=O)c3cccc([N+](=O)[O-])c3)cc2s1`, the kinetic solubility was above 52.4 µg/mL.
Under `COc1cc(/C=C/C(=O)OCC(=O)NCCc2ccc(F)cc2)ccc1OC(F)F` stands 4 µg/mL (≈ 9.45 µM); under `COc1ccc(NC(=O)C2Cc3ccccc3O/C2=N\O)cc1` (configuration not stated), 10.2 µg/mL (≈ 32.7 µM).
Under `CS(=O)(=O)Nc1ccccc1C(=O)NCCSc1ccc(Cl)cc1` stands 33.8 µg/mL (≈ 87.8 µM); under `CN(C(=O)c1ccccc1)C1c2c(ccc3ccccc23)OCC1CO` (configuration not stated), below 0.7 µg/mL; under `CC(=O)c1ccc(NC(=O)NC2CCCCCCC2)cc1`, 5.1 µg/mL (≈ 17.7 µM).
Under `COc1ccc(NS(=O)(=O)c2csc(C(N)=O)c2)cc1` stands above 46.9 µg/mL.
With `O=C1CSC(c2ccccc2)N1Cc1ccccc1` (configuration not stated), the kinetic solubility was 31.3 µg/mL (≈ 116 µM).

What is called solubility (kinetic) is solubility judged after dilution from a stock solution rather than from solid.
